In patent publication US6770738B1, “Higher order structure and binding of peptide nucleic acids” (ISIS Pharmaceuticals, Inc., priority 1992, dated 2004):

Tests used:
[1] = system: pA98 plasmid relaxed circles (rcDNA); assay: Unwinding of closed circular DNA with PNA; assay type: binding
Experimental: Relaxed circular DNA was prepared by treating ordinary supercoiled plasmid DNA with an extract containing DNA topoisomerase I, as described by V. I. Lyamichev, et. al., J. Biomolec. Struct. Dynamics, 3, 327-338 (1985). DNA-PNA complexes were obtained by incubation of 1-2 μg of DNA in 5-20 μL TE with 0.4 optical units./mL of PNA for 4 hours at 20-22° C. This corresponded to about 10 times molar excess of PNA to its potential binding sites. Agarose (1.5%) gel electrophoresis was performed in the TAE buffer containing 1 μg/mL of chloroquine at 10° C. for 15 hours at 1.5 V/cm. Tw—dimensional gel electrophoresis was preformed in the first direction (from top to bottom) in the TAE buffer and in the second direction (from left to right) in the same buffer with addition of 1 μg/mL of chloroquine.
In this example, the efficiency of PNA T10 incorporating into the DNA duplex and displacing the DNA T-strand in solution was shown by unwinding of closed circular DNA by PNA. The pA98 plasaid (Example 16) was prepared in the form of relaxed circles (rcDNA). It was expected that complexing with PHA would unwind about 10 turns of the DNA duplex. Because of topological constraints (the two strands in rcDNA were closed and therefore topologically linked), this unwinding would make the rcDNA molecules behave as if they were positively supercoiled by 10 superturns. […]

[2] = system: pT9CT9C plasmid linearized by CfrlOI; assay: Site-specific S1 nuclease digestion of plasmid with two PNA sites complexed with PNA; assay type: biochemical; conditions: 30 units S1 nuclease; target sites are for T5CT4
Text: was cloned into the Sal1 site of the pUC19 plasmid. This plasmid, which contained two binding sites for PNA H-T5CT4-LysNH2 (SEQ ID NO:6) separated by six base pairs, was designated pT9CT9C. Strand displacement in the two T5CT4 sites led to opening of the entire region, including the sequence GTCGAC/GACGAC, providing a substrate for the S1 nuclease in both strands. As control, a pT9C-5 plasmid was used, which carried only one T5CT4 (SEQ ID NO:6) insert cloned into the SalI site of the pUC19 plasmid.
cloned in the Sal1 site of the pUC19 polylinker. The pT9C-5 plasmid carried the single insert A5GA4/CT5 (SEQ ID NO:4) cloned in the same site. The PNA-DNA complexes were prepared as described in Example 2 with the only difference being the duration of the incubation was 2 hours. Digestion by 30 units of the S1 nuclease was performed in the same buffer as described in Example 2 with two exceptions, lanes 2 and 4. In lane 2, 15 units of the enzyme were used, whereas in lane 4 200 mM NaCl and 1 mM of ZnSO4 were added to the buffer. Lane 1: the reference band obtained by digestion with the BamHI restriction enzyme of the pUC 19 plasmid linearized by the CfrlOI restriction enzyme. Lanes 2-4 site-specific digestion by the S1 nuclease of the linearized pT9C plasmid complexed with PNA H-T5CT4-LysNH2 (SEQ ID NO:6). Lanes 5-7: various controls. Lane 8: the same experiment as in lane 3, but using PNA T10 (SEQ ID NO:2) instead of T4CT5 (SEQ ID NO:8). Lane 9: the same experiment as in lane 3, but using PNA T2CT2CT4 (SEQ ID NO:1) instead of T4CT5 (SEQ ID NO:8). Lane 10: the same experiment as in lane 3, but using the pT9C-5 plasmid instead of the pT9C. In the header PNA T5CT4 (SEQ ID NO:6) is labelled as 1, T10 (SEQ ID NO:2) as 2 and T2CT2CT4 (SEQ ID NO:1) as 3.
The bands observed by gel electrophoresis have the same position and width as the band created by the BamHI restriction enzyme. […] Moreover, under the much milder S1 nuclease treatment necessary to generate the data for the pT9CT9C, the yield of double-stranded breaks in the pT9C-5 plasmid was extremely low (lane 10).

[3] = system: pTlO plasmid (dA10/dT10 insert) and corresponding plasmids linearized with CfrlOI; assay: Site-specific S1 nuclease digestion of linearized plasmid complexed with PNA; assay type: biochemical; conditions: 145 units S1 nuclease, room temperature; each PNA with its corresponding plasmid
Experimental: PNA H-T10-LysNH2 (SEQ ID NO:2) was synthesized as described in Example 1. A pTlO plasmid was prepared from the pUC19 plasmid by inserting the dA10/dT10 (SEQ ID NO:3) sequence into the BamHl site of the polylinker as per the method of Egholm, N et al., J.A.C.S. 1992 114:1895-1897. The pTlO plasmid was linearized with CfrlOI restriction enzyme in the unique site. To form complex with the PNA, about0.1 μg of the linearized plasmid was incubated with 2 o.u./ml of PNA in 3 μl of the TE buffer (10 mM Tris-HCl; 1 mM EDTA, pH 7.4) at 37° C. To perform the S1 nuclease reaction, 10 μl of Na-Acetate buffer (33 mM NaAc; 50 mM NaCl; 10 mM ZnSO4; 0.5% of glycerol, pH 4.6) and 145 units of S1 nuclease (Sigma) were added and incubated for various time periods at room temperature. The reaction was terminated by adding 1 μl of 0.5 M EDTA and cooling to −20° C. Electrophoresis was performed in 1% agarose gel in the TBE buffer with subsequent staining with ethidium bromide. The results of this example are shown in FIG. 1 wherein the size of the markers are shown as are the incubation time periods. In FIG. 8 Lane 1: control—preincubation of DNA with PNA was performed under conditions unfavorable for complex formation (200 mM of NaCl). Lane 2: the reference band obtained by digestion with BamHI restriction enzyme. Lane 3: reference bands obtained by the digestion with Bgll restriction enzyme. […]

H-T10LysNH2 [PNA H-T10-LysNH2]
salt concentration tolerated by complex formed at low salt ([1]; NaCl): at least 500 mM | turns of the double helix released upon binding of PNA ([1]; TE buffer, two-dimensional gel electrophoresis): 8-10 turns | S1 nuclease digestion of pT9CT9C plasmid complexed with PNA [2]: very weak digestion | S1 nuclease cutting of linearized plasmid complexed with PNA [3]: a significant fraction of DNA was cut
